Laboratory results taken from patent US8716475B2, “2-aminopyrimidine modulators of the histamine H4 receptor” (Janssen Pharmaceutica NV, priority 2007, dated 2014).

What follows are compounds tested against T1, human H4 receptor (Homo sapiens, UniProt Q9H3N8) (assay: Binding Assay on Recombinant Human Histamine H4 Receptor). Conditions: Table 1; [3H] histamine competition binding, membranes of SK-N-MC cells transfected with human H4 receptor; average of results.
T1 construct: expressed in transfected cells
Outline: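 Radioligand binding used membranes from SK-N-MC cells stably or transiently expressing human H4, prepared in 50 mM Tris/5 mM EDTA. Nonspecific binding was defined with 100 μM histamine. Bound radioactivity was counted after filtration on PEI-treated GF/C filters, and ">" values are the highest concentration tested.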

Structure (SMILES)	Ki [µM]
Nc1nc(C2CCOC2)cc(N2CCNCC2)n1 (centres unmarked) [Example 56, 4-piperazin-1-yl-6-(tetrahydro-furan-3-yl)-pyrimidin-2-ylamine]	0.02
CN[C@@H]1CCN(c2cc(C(C)C)nc(N)n2)C1 [Example 11, (R)-4-Isopropyl-6-(3-methylamino-pyrrolidin-1-yl)-pyrimidin-2-ylamine]	0.012
CC(C)c1cc(N2C[C@@H]3C[C@H]2CN3)nc(N)n1 [Example 14, (S,S)-4-(2,5-Diaza-bicyclo[2.2.1]hept-2-yl)-6-isopropyl-pyrimidin-2-ylamine]	0.673
CCc1cc(N2C[C@H]3CCCN[C@H]3C2)nc(N)n1 [Example 39, (R,R)-(4-Ethyl-6-octahydro-pyrrolo[3,4-b]pyridin-6-yl)-pyrimidin-2-ylamine]	0.01
CCc1cc(N2CCNCC2)nc(N)n1 [Example 33, 4-Ethyl-6-piperazin-1-yl-pyrimidin-2-ylamine]	0.01
CN[C@@H]1CCN(c2cc(C3CCCC3)nc(N)n2)C1 [Example 4, (R)-4-Cyclopentyl-6-(3-methylamino-pyrrolidin-1-yl)-pyrimidin-2-ylamine]	0.001

Same assay, conditions: Table 2, data marked with an asterisk (*): obtained by the cell harvester method; [3H] histamine competition binding, SK-N-MC membranes

Ki [µM]	Structure (SMILES)
1.43	COc1c(C2CCCC2)nc(N)nc1N(C)CCN [Example 115, N^4-(2-Amino-ethyl)-6-cyclopentyl-5-methoxy-N^4-methyl-pyrimidine-2,4-diamine]

Same assay, conditions: Table 2; [3H] histamine competition binding, membranes of SK-N-MC cells transfected with human H4 receptor; average of results

Ki [µM]	Structure (SMILES)
0.213	COc1c(C2CCCC2)nc(N)nc1N1CCNCC1 [Example 186, 4-Cyclopentyl-5-methoxy-6-piperazin-1-yl-pyrimidin-2-ylamine]
1.03	CN(CCN)c1cc(C2CCOCC2)nc(N)n1 [Example 177, N^4-(2-Amino-ethyl)-N^4-methyl-6-(tetrahydro-pyran-4-yl)-pyrimidine-2,4-diamine]
0.153	CN[C@H]1CCN(c2cc(COC)nc(N)n2)C1 [Example 119, (S)-4-Methoxymethyl-6-(3-methylamino-pyrrolidin-1-yl)-pyrimidin-2-ylamine]
0.103	CCCCc1nc(N)nc(N2CC[C@H](N)C2)c1OC [Example 105, (S)-4-(3-Amino-pyrrolidin-1-yl)-6-butyl-5-methoxy-pyrimidin-2-ylamine]
0.932	Nc1nc(C2Cc3ccccc3O2)cc(N2CC(N)C2)n1 (centres unmarked) [Example 172, 4-(3-Amino-azetidin-1-yl)-6-(2,3-dihydro-benzofuran-2-yl)-pyrimidin-2-ylamine]
0.097	CC1(c2cc(N3CCNCC3)nc(N)n2)CCOCC1 [Example 153, 4-(4-Methyl-tetrahydro-pyran-4-yl)-6-piperazin-1-yl-pyrimidin-2-ylamine]
0.004	CN[C@@H]1CCN(c2cc(C3Cc4ccccc4C3)nc(N)n2)C1 [Example 164, (R)-4-Indan-2-yl-6-(3-methylamino-pyrrolidin-1-yl)-pyrimidin-2-ylamine]
0.002	CN1CCN(c2cc(C3Cc4ccccc4C3)nc(N)n2)CC1 [Example 163, 4-Indan-2-yl-6-(4-methyl-piperazin-1-yl)-pyrimidin-2-ylamine]

Structure (SMILES)	Ki [µM]
CN1C[C@@H]2CN(c3cc(C(C)(C)C)nc(N)n3)C[C@@H]2C1 [Example 128, 4-tert-Butyl-6-(cis-5-methyl-hexahydro-pyrrolo[3,4-c]pyrrol-2-yl)-pyrimidin-2-ylamine]	0.019
CC(C)Cc1cc(N2CCNCC2)nc(N)n1 [Example 147, 4-Isobutyl-6-piperazin-1-yl-pyrimidin-2-ylamine]	0.004
CN1CCN(c2nc(N)nc3c2COCC3)CC1 [Example 96, 4-(4-Methyl-piperazin-1-yl)-7,8-dihydro-5H-pyrano[4,3-d]pyrimidin-2-ylamine]	0.035
CCCCc1cc(N2CC3CCCNC3C2)nc(N)n1 (stereo not drawn) [Example 141, 4-Butyl-6-(cis-octahydro-pyrrolo[3,4-b]pyridin-6-yl)-pyrimidin-2-ylamine]	0.084
COCc1cc(N2C[C@H]3CCCN[C@H]3C2)nc(N)n1 [Example 226, (R,R)-4-Methoxymethyl-6-(octahydro-pyrrolo[3,4-b]pyridin-6-yl)-pyrimidin-2-ylamine]	0.014
